Laboratory results from ChEMBL document CHEMBL4152357, “Efflux pump inhibition by 11H-pyrido[2,1-b]quinazolin-11-one analogues in mycobacteria” (Bioorg Med Chem, 2018).
In brackets after ≈: the same amount, converted by molar mass. Activity calls are given as the source filed them. The calls are words filed in the database; no cut-off is given here.

Columns and labels:
[1] = system: Mycolicibacterium smegmatis; test: Growth inhibition of Mycobacterium smegmatis MC2 155 ATCC 700084 after 72 hrs by MTT assay; assay type: organism-based
[2] = molecular target: T1, Multidrug efflux pump LfrA (Mycobacterium smegmatis (strain ATCC 700084 / mc(2)155)) (UniProt A0R5K5); test: Inhibition of LfrA in Mycobacterium smegmatis MC2 155 ATCC 700084 assessed as decrease in EtBr MIC at 0.78 ug/ml after 72 hrs by MTT assay relative to control; settings: Mycolicibacterium smegmatis MC2 155
T1 sequence (whole entry): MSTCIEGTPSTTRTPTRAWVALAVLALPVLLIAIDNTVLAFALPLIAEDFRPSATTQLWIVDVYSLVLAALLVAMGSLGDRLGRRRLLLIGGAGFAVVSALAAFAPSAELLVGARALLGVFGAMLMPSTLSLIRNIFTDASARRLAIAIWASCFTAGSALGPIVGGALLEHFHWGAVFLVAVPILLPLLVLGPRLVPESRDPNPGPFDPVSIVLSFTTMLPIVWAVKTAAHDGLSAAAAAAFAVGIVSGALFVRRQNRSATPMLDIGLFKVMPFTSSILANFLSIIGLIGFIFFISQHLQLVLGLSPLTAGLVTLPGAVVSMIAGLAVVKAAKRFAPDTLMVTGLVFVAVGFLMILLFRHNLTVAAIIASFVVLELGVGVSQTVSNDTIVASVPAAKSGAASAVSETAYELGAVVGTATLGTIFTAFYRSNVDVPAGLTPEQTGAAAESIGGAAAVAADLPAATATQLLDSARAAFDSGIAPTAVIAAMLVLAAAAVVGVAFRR

[3] = molecular target: T1, Multidrug efflux pump LfrA (Mycobacterium smegmatis (strain ATCC 700084 / mc(2)155)); test: Inhibition of LfrA in Mycobacterium smegmatis MC2 155 ATCC 700084 assessed as decrease in norfloxacin MIC at 25 ug/ml after 72 hrs by MTT assay relative to control; settings: Mycolicibacterium smegmatis MC2 155
[4] = molecular target: T1, Multidrug efflux pump LfrA (Mycobacterium smegmatis (strain ATCC 700084 / mc(2)155)); test: Inhibition of LfrA in Mycobacterium smegmatis MC2 155 ATCC 700084 assessed as decrease in EtBr MIC at 100 ug/ml after 72 hrs by MTT assay relative to control; settings: Mycolicibacterium smegmatis MC2 155
[5] = molecular target: T1, Multidrug efflux pump LfrA (Mycobacterium smegmatis (strain ATCC 700084 / mc(2)155)); test: Inhibition of LfrA in Mycobacterium smegmatis MC2 155 ATCC 700084 assessed as decrease in norfloxacin MIC at 12.5 ug/ml after 72 hrs by MTT assay relative to control; settings: Mycolicibacterium smegmatis MC2 155
[6] = molecular target: T1, Multidrug efflux pump LfrA (Mycobacterium smegmatis (strain ATCC 700084 / mc(2)155)); test: Inhibition of LfrA in Mycobacterium smegmatis MC2 155 ATCC 700084 assessed as potentiation of EtBr-induced bactericidal activity at 100 ug/ml after 24 hrs; settings: Mycolicibacterium smegmatis MC2 155
CC-1 = test: Cytotoxicity against rat CC1 cells assessed as decrease in cell survival at 200 ug/ml after 24 hrs by Alamar blue reduction assay relative to control; assay type: cell-based; settings: cc-1, 24 h
[7] = Cytotoxicity against rat CC1 cells assessed as cell survival at 100 ug/ml after 24 hrs by Alamar blue reduction assay relative to control; assay type: cell-based, CC-1; settings: read-out: Survival
[8] = Cytotoxicity against rat CC1 cells assessed as cell survival at 50 ug/ml after 24 hrs by Alamar blue reduction assay relative to control; assay type: cell-based, CC-1; settings: read-out: Survival
[9] = molecular target: T1, Multidrug efflux pump LfrA (Mycobacterium smegmatis (strain ATCC 700084 / mc(2)155)); test: Inhibition of LfrA in Mycobacterium smegmatis MC2 155 ATCC 700084 assessed as increase in EtBr accumulation at 25 ug/ml measured every 5 mins for 35 mins by fluorometric analysis; settings: Mycolicibacterium smegmatis MC2 155
[10] = molecular target: T1, Multidrug efflux pump LfrA (Mycobacterium smegmatis (strain ATCC 700084 / mc(2)155)); test: Inhibition of LfrA in Mycobacterium smegmatis MC2 155 ATCC 700084 assessed as increase in EtBr accumulation at 50 ug/ml measured every 5 mins for 35 mins by fluorometric analysis; settings: Mycolicibacterium smegmatis MC2 155
[11] = molecular target: T1, Multidrug efflux pump LfrA (Mycobacterium smegmatis (strain ATCC 700084 / mc(2)155)); test: Inhibition of LfrA in Mycobacterium smegmatis MC2 155 ATCC 700084 assessed as decrease in norfloxacin MIC at 50 ug/ml after 72 hrs by MTT assay relative to control; settings: Mycolicibacterium smegmatis MC2 155
[12] = molecular target: T1, Multidrug efflux pump LfrA (Mycobacterium smegmatis (strain ATCC 700084 / mc(2)155)); test: Inhibition of LfrA in Mycobacterium smegmatis MC2 155 ATCC 700084 assessed as potentiation of EtBr-induced bactericidal activity at 100 ug/ml after 48 hrs; settings: Mycolicibacterium smegmatis MC2 155
[13] = molecular target: T1, Multidrug efflux pump LfrA (Mycobacterium smegmatis (strain ATCC 700084 / mc(2)155)); test: Inhibition of LfrA in Mycobacterium smegmatis MC2 155 ATCC 700084 assessed as decrease in norfloxacin MIC at 100 ug/ml after 72 hrs by MTT assay relative to control; settings: Mycolicibacterium smegmatis MC2 155
[14] = molecular target: T1, Multidrug efflux pump LfrA (Mycobacterium smegmatis (strain ATCC 700084 / mc(2)155)); test: Inhibition of LfrA in Mycobacterium smegmatis MC2 155 ATCC 700084 assessed as potentiation of norfloxacin-induced bactericidal activity at 100 ug/ml after 48 hrs; settings: Mycolicibacterium smegmatis MC2 155
[15] = molecular target: T1, Multidrug efflux pump LfrA (Mycobacterium smegmatis (strain ATCC 700084 / mc(2)155)); test: Inhibition of LfrA in Mycobacterium smegmatis MC2 155 ATCC 700084 assessed as increase in norfloxacin accumulation at 25 ug/ml measured every 5 mins for 35 mins by fluorometric analysis; settings: Mycolicibacterium smegmatis MC2 155
[16] = molecular target: T1, Multidrug efflux pump LfrA (Mycobacterium smegmatis (strain ATCC 700084 / mc(2)155)); test: Inhibition of LfrA in Mycobacterium smegmatis MC2 155 ATCC 700084 assessed as decrease in EtBr MIC at 3.125 ug/ml after 72 hrs by MTT assay relative to control; settings: Mycolicibacterium smegmatis MC2 155

For `Cc1cccn2c(=O)c3cc(Br)ccc3nc12`, the MIC [1] was 200 µg/mL (≈ 692 µM), the fold change (FC) [2] was 2 and the fractional inhibitory concentration index (FICI) [2] was 0.3. It also gave a fold change (FC) [3] of 4 and a fractional inhibitory concentration index (FICI) [3] of 0.37.
`Cc1ccn2c(=O)c3cccc(F)c3nc2c1` showed an MIC [1] of 200 µg/mL (≈ 876 µM), a fold change (FC) [4] of 8 and a fractional inhibitory concentration index (FICI) [4] of 0.62. The fold change (FC) [5] was 4, the fractional inhibitory concentration index (FICI) [5] was 0.3 and the inhibition [6] was “Active”. The Activity (CC-1) was over 50%, the viability at 24 h, 100 ug/ml [7] was 43% and the viability at 24 h, 50 ug/ml [8] was 96%. For the same compound, the inhibition [9] was “Active” and the Activity [10] was over 150 FU.
With `Cc1cccn2c(=O)c3ccc(Br)cc3nc12` the MIC [1] was 200 µg/mL (≈ 692 µM), the fold change (FC) [3] was 4 and the fractional inhibitory concentration index (FICI) [3] was 0.37.
Compound `O=c1c2cccc(Cl)c2nc2c(Cl)cccn12` has an MIC [1] of 200 µg/mL (≈ 754 µM), a fold change (FC) [4] of 16 and a fractional inhibitory concentration index (FICI) [4] of 0.56. For the same compound, the fold change (FC) [11] was 4, the fractional inhibitory concentration index (FICI) [11] was 0.55 and the Activity (deltalog10CFU/ml) [12] was 7. It also gave an Activity (CC-1) of over 50%, a viability at 24 h, 100 ug/ml [7] of 92% and a viability at 24 h, 50 ug/ml [8] of 95%. The inhibition [9] was “Active” and the Activity [10] was over 355 FU.
`O=c1c2ccc(F)cc2nc2ccccn12` showed an MIC [1] of 200 µg/mL (≈ 934 µM), a fold change (FC) [5] of 2 and a fractional inhibitory concentration index (FICI) [5] of 0.56.
`O=c1c2ccc(Cl)cc2nc2ccccn12` gave an MIC [1] of 200 µg/mL (≈ 867 µM), a fold change (FC) [4] of 8 and a fractional inhibitory concentration index (FICI) [4] of 0.62. The fold change (FC) [13] was 8, the fractional inhibitory concentration index (FICI) [13] was 0.62 and the inhibition [6] was “Active”. The Activity (deltalog10CFU/ml) [14] was 4, the Activity (CC-1) was over 50% and the viability at 24 h, 100 ug/ml [7] was 70%. The viability at 24 h, 50 ug/ml [8] was 80%, the inhibition [9] was “Active” and the Activity [10] was 248 FU. The Activity [15] was 18000 FU.
`Cc1ccn2c(=O)c3cccc(Cl)c3nc2c1` showed an MIC [1] of 200 µg/mL (≈ 817 µM), a fold change (FC) [16] of 2 and a fractional inhibitory concentration index (FICI) [16] of 0.5. It also gave a fold change (FC) [3] of 4 and a fractional inhibitory concentration index (FICI) [3] of 0.37.
Work on `O=c1c2cccc(Cl)c2nc2ccc(F)cn12` yielded an MIC [1] of 200 µg/mL (≈ 804 µM), a fold change (FC) [4] of 8 and a fractional inhibitory concentration index (FICI) [4] of 0.62. For the same compound, the fold change (FC) [11] was 4, the fractional inhibitory concentration index (FICI) [11] was 0.55 and the inhibition [6] was “Active”. For the same compound, the Activity (CC-1) was over 50%, the viability at 24 h, 100 ug/ml [7] was 86% and the viability at 24 h, 50 ug/ml [8] was 84%. For the same compound, the inhibition [9] was “Active” and the Activity [10] was over 500 FU.
With `Cc1cccn2c(=O)c3ccccc3nc12` the MIC [1] was 200 µg/mL (≈ 951 µM), the fold change (FC) [4] was 8 and the fractional inhibitory concentration index (FICI) [4] was 0.62. For the same compound, the fold change (FC) [5] was 4, the fractional inhibitory concentration index (FICI) [5] was 0.3 and the inhibition [6] was “Active”. The Activity (CC-1) was over 50%, the viability at 24 h, 100 ug/ml [7] was 81% and the viability at 24 h, 50 ug/ml [8] was 45%. The inhibition [9] was “Active” and the Activity [10] was 250 FU.
